Results: US10927178B2, “Anti-CXCR4 antibodies and antibody-drug conjugates” (PFIZER INC., priority 2013, dated 2021)

Experiments:
[1] = tested on: Ramos cells; test: Cell-death induction in Ramos cells (Annexin V/PI); assay type: cell-based, human; details: positive control, 24 hrs, untreated cells approximately 30%
Description: Anti-CXCR4 antibodies were examined for the ability to induce cell-death in the human Non-Hodgkin's Lymphoma Ramos cell line. Cells were cultured to sub-confluency in RPMI 1640 media containing 10% fetal bovine serum and […] Glutamine at 37° C. in a CO2 incubator. Cells were seeded in growth media in a 48-well plates at 2.5×10^6 cells/mL. Anti-CXCR4 antibodies, diluted in PBS to concentrations indicated, were added to the cells and incubated for 24 hrs at 37° C. Cell-death was measured by Annexin V-PE and propidium iodide (PI) fluorescent signal measured in a LSRII Flow Cytometer (BD Biosciences). Total cell-death was determined by adding the Annexin V+/PI+(late) population with the Annexin V+/PI-(early) population.
The Fab is a single chain antibody (monovalent) and contains the immunoglobulin variable regions which are part of the antigen-binding site and the first immunoglogulin constant region. This fragment was obtained by digestion of the 3G10 antibody with the proteolytic enzyme papain. The F(ab′)2 was generated by pepsin digestion to remove most of the Fc region while leaving intact some of the hinge region. F(ab′)2 fragments have two antigen-binding Fab portions linked together by disulfide bonds, and therefore are bivalent.

[2] = tested on: JVM-13-Luc cells; test: Systemic JVM-13-Luc CLL model; assay type: in vivo, mouse; details: 10 mg/kg s.c. once a week
Description: Anti-tumor activity of CXCR4 antibody was further investigated in a disseminated intravenous Chronic Lymphocytic Leukemia (CLL) model. The human JVM-13 tumor cell line stably transfected to express the luciferase gene was cultured at 37° C. in a 5% CO2 incubator in RPMI 1640 media containing 10% fetal bovine serum and […] Puromycin. The model was established by injecting 1×10^6 JVM-13-Luc cells into female 6-8 week old SCID Beige mice via tail vein. 21 days post-cell implantation mice were assigned into treatment groups (10 animals per group) based on bioluminescence (BLI) reading. […] Rituximab, an anti-CD20 Ab, approved for treatment of CLL patients, was used as positive control. Rituximab was dosed at 10 mg/kg in a solution of sterile PBS once a week, s.c. Tumor burden was assessed using Xenogen IVIS 200 imaging system. Mice were imaged every 7 days in a ventral position and whole body bioluminescence was determined using Xenogen Living Image software. When mice began to show hind limb paralysis or reached other humane endpoints they were euthanized. Both tumor burden (by bioluminescence) and survival were evaluated as endpoints.

Compound	cell-death [1]	tumor burden (luminescence) compared to isotype control antibody ([2]; from 21 days post-implantation)	median survival ([2]; isotype control 32.5 days) [days]	survival compared to isotype control Ab ([2]; p<0.0001)
CN[C@@H]1C[C@H]2O[C@@](C)([C@@H]1OC)n1c3ccccc3c3c4c(c5c6ccccc6n2c5c31)C(=O)NC4 [Staurosporin, reference compound]	approximately 60%			
Rituximab: anti-CD20 Ab, approved for treatment of CLL patients, used as positive control [reference compound]		significantly reduced tumor burden	45	Significant increase in survival
